pEC50, pIC50, pKi: −log10 of the molar value.
Key:
[1] = Antiviral activity against Influenza A virus (A/WSN/1933(H1N1)) infected in MDCK cells assessed as inhibition of virus-induced cytopathicity; format: functional, organism-based
Influenza A virus = assay: Antiviral activity against Influenza A virus (A/Singapore/1/1957 (H2N2)) infected in MDCK cells assessed as inhibition of virus-induced plaque formation; format: functional, organism-based
Neuraminidase [2] = target: T1, Neuraminidase (Influenza A virus, UniProt B4URF0)
T1 sequence (B4URF0 whole entry): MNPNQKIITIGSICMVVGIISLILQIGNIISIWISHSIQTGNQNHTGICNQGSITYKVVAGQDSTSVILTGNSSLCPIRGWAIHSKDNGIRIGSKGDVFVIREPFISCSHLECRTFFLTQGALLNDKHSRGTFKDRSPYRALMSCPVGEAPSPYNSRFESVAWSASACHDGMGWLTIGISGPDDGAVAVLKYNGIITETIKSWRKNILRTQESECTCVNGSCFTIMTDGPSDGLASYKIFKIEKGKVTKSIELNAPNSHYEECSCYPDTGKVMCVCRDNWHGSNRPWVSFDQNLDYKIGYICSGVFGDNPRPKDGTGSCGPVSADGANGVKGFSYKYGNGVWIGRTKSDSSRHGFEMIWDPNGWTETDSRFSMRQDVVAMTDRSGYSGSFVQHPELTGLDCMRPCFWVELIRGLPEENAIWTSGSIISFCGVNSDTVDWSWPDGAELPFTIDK

Neuraminidase [3] = target: T1, Neuraminidase; assay: Inhibition of Influenza A virus A/WSN/1933(H1N1) neuraminidase
Neuraminidase [4] = target: T1, Neuraminidase; assay: Inhibition of Influenza A virus A/Vienna/83/58(H2N2) neuraminidase

| Compound | pEC50 [1] | pIC50 (Neuraminidase [3]) | other results |
| --- | --- | --- | --- |
| CC(=O)N[C@H]1[C@H]([C@H](O)[C@H](O)CO)OC(C(=O)O)=C[C@@H]1NC(=N)N [ZANAMIVIR] | 7.89 | – | – |
| CC(=O)N[C@H]1[C@H]([C@H](O)[C@H](O)CO)OC(C(=O)O)=C[C@@H]1N | – | – | pEC50 (Influenza A virus): 5.82; pKi (Neuraminidase [2]): 7.40 |
| CC(=O)N[C@H]1[C@H]([C@H](O)[C@H](O)CO)OC(C(=O)O)=C[C@@H]1N(CCCC(=O)O)C(=N)N | 4.28 | 5.15 | – |
| CC(=O)N[C@H]1[C@H]([C@H](O)[C@H](O)CO)OC(C(=O)O)=C[C@@H]1NC(=N)NCCCCN | – | < 3.70 | – |
| CC(=O)N[C@H]1[C@H]([C@H](O)[C@H](O)CO)OC(C(=O)O)=C[C@@H]1NCCCCN | – | < 3.70 | – |
| CC(=O)N[C@H]1[C@H]([C@H](O)[C@H](O)CO)OC(C(=O)O)=C[C@@H]1N=C(N)NCCCN | – | < 3.70 | – |
| CC(=O)N[C@H]1[C@H]([C@H](O)[C@H](O)CO)OC(C(=O)O)=C[C@@H]1NCCCCC(=O)O | – | 4.10 | – |
| CC(=O)N[C@H]1[C@H]([C@H](O)[C@H](O)CO)OC(C(=O)O)=C[C@@H]1N(CCCC(=O)N1CCNCC1)C(=N)N | 6.11 | 5.67 | – |
| CC(=O)N[C@H]1[C@H]([C@H](O)[C@H](O)CO)OC(C(=O)O)=C[C@@H]1N(CCCC(=O)N1CCN(C)CC1)C(=N)N | 4.97 | 5.19 | – |
| CC(=O)N[C@H]1[C@H]([C@H](O)[C@H](O)CO)OC(C(=O)O)=C[C@@H]1O [NEU5AC2EN] | – | – | pIC50 (Neuraminidase [4]): 3.72 |
| CC(=O)N[C@H]1[C@H]([C@H](O)[C@H](O)CO)OC(C(=O)O)=C[C@@H]1N(CCCN)C(=N)N | – | < 3.70 | – |
| CC(=O)N[C@H]1[C@H]([C@H](O)[C@H](O)CO)OC(C(=O)O)=C[C@@H]1N(CCCC(=O)N1CCCCC1)C(=N)N | 4.35 | 4.64 | – |
| CC(=O)N[C@H]1[C@H]([C@H](O)[C@H](O)CO)OC(C(=O)O)=C[C@@H]1N(CCCC(=O)N1CCOCC1)C(=N)N | 4.42 | 4.48 | – |
| CC(=O)N[C@H]1[C@H]([C@H](O)[C@H](O)CO)OC(C(=O)O)=C[C@@H]1NC1=NCCN1 | – | < 3.70 | – |
| CC(=O)N[C@H]1[C@H]([C@H](O)[C@H](O)CO)OC(C(=O)O)=C[C@@H]1N(CCCCN)C(=N)N | – | < 3.70 | – |
| CC(=O)N[C@H]1[C@H]([C@H](O)[C@H](O)CO)OC(C(=O)O)=C[C@@H]1NCCCC(=O)O | – | 4.15 | – |
| CC(=O)N[C@H]1[C@H]([C@H](O)[C@H](O)CO)OC(C(=O)O)=C[C@@H]1NCCCN | – | < 3.70 | – |

— ChEMBL document CHEMBL1165924 (Bioorg Med Chem, 2010)
